According to patent publication US10966426B2, “Herbicidal compositions comprising phenylpyrimidines” (BASF SE, priority 2016, dated 2021):

Experiments:
Type in all cases: in vivo
Ambrosia elatior [1] = test: greenhouse post-emergence treatment, AMBEL; conditions: 20 DAT, AMBEL; for % activity: solo, WG 70%
Summary of the method: (§1)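 Visual herbicidal effect (0–100) recorded over a 2 to 4 week test period after foliar treatment at plant heights of 3 to 15 cm. Expected combination effects derived by the Colby formula from single-component effects X and Y.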

Avena fatua = test: greenhouse post-emergence treatment, AVEFA; conditions: Avena fatua, 480 h, 20 DAT, AVEFA
Summary of the method: (§2)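 Greenhouse test in humus-containing (~3.0%) loamy sand at species-dependent temperatures of 10-25° C. or 20-35° C.; treatments applied in water. Damage rated visually after 2–4 weeks (0 = none, 100 = complete destruction or no emergence).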

Alopecurus myosuroides = test: greenhouse post-emergence treatment, ALOMY; conditions: Alopecurus myosuroides, 480 h, 20 DAT, ALOMY
Summary of the method: as §2

Lolium multiflorum = test: greenhouse post-emergence treatment, LOLMU; conditions: Lolium multiflorum, 480 h, solo, WG 70%, LOLMU, 20 DAT
Summary of the method: as §2

Poa annua = test: greenhouse post-emergence treatment, POAAN; conditions: Poa annua, 480 h, 20 DAT, POAAN
Summary of the method: as §1

Ambrosia elatior [2] = test: greenhouse pre-emergence treatment, AMBEL; conditions: Ambrosia artemisiifolia, 480 h, 20 DAT, AMBEL
Summary of the method: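 Seeds were sown per species in pots of loamy sand with about 3.0% humus, sprayed with the aqueous spray liquor directly after sowing, watered and hooded until rooted, then kept at 10-25° C. or 20-35° C. for 2 to 4 weeks. Damage was scored 0 (none) to 100 (no emergence/complete destruction).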

Papaver rhoeas = test: greenhouse post-emergence treatment, PAPRH; conditions: Papaver rhoeas, 480 h, solo, WG 70%, PAPRH, 17.5 gai/ha, 20 DAT
Summary of the method: (§3)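 Seeds sown per species in pots of loamy sand; seedlings either grown in place or transplanted days before treatment. Post-emergence spray of water-based liquor at 3–15 cm height. Injury rated 0–100 over 2 to 4 weeks.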

Matricaria chamomilla = test: greenhouse post-emergence treatment, MATCH; conditions: Matricaria chamomilla, 480 h, 20 DAT, MATCH
Summary of the method: as §3

Polygonum convolvulus = test: greenhouse post-emergence treatment, POLCO; conditions: Fallopia convolvulus, 480 h, 20 DAT, POLCO
Summary of the method: as §3

Brachiaria decumbens = test: greenhouse post-emergence treatment, BRADC; conditions: Urochloa decumbens, 480 h, 20 DAT, BRADC, metribuzin WG 70% solo 17.5 gai/ha
Summary of the method: as §1

Setaria viridis = test: greenhouse post-emergence treatment, SETVI; conditions: Setaria viridis, 480 h, solo, WG 70%, SETVI, 17.5 gai/ha, 20 DAT
Summary of the method: as §2

Bromus sterilis = test: greenhouse post-emergence treatment, BROST; conditions: Bromus sterilis, 480 h, solo, WG 70%, BROST, 20 DAT
Summary of the method: as §2

[3] = metribuzin WG 70% solo 17.5 gai/ha
[4] = metribuzin WG 70% solo 35 gai/ha
[5] = metribuzin WG 70% solo 70 gai/ha

SMILES: CSc1nnc(C(C)(C)C)c(=O)n1N [metribuzin]
- inhibition at 17.5 g/ha (Ambrosia elatior [1]; Ambrosia artemisiifolia, 480 h, metribuzin WG 70% solo 17.5 gai/ha): 0%
- inhibition at 35 g/ha (Ambrosia elatior [1]; Ambrosia artemisiifolia, 480 h, metribuzin WG 70% solo 35 gai/ha): 0%
- inhibition at 70 g/ha (Ambrosia elatior [1]; Ambrosia artemisiifolia, 480 h, metribuzin WG 70% solo 70 gai/ha): 0%
- inhibition at 140 g/ha (Ambrosia elatior [1]; Ambrosia artemisiifolia, 480 h, metribuzin WG 70% solo 140 gai/ha): 70%
- % activity (Ambrosia elatior [1]; 17.5 gai/ha): 0%
- % activity (Ambrosia elatior [1]; 35 gai/ha): 0%
- % activity (Ambrosia elatior [1]; 70 gai/ha): 0%
- inhibition at 17.5 g/ha (Avena fatua; [3]): 5%
- inhibition at 35 g/ha (Avena fatua; [4]): 10%
- inhibition at 70 g/ha (Avena fatua; [5]): 40%
- pest or weed control at 17.5 g/ha (Avena fatua; solo, WG 70%, 17.5 gai/ha): 5%
- pest or weed control at 35 g/ha (Avena fatua; solo, WG 70%, 35 gai/ha): 10%
- pest or weed control at 70 g/ha (Avena fatua; solo, WG 70%, 70 gai/ha): 40%
- inhibition at 17.5 g/ha (Alopecurus myosuroides; [3]): 0%
- inhibition at 35 g/ha (Alopecurus myosuroides; metribuzin WG 70% solo 35 gai/ha, read-out: % activity): 10%
- pest or weed control at 17.5 g/ha (Alopecurus myosuroides; solo, WG 70%, 17.5 gai/ha): 0%
- pest or weed control at 35 g/ha (Alopecurus myosuroides; solo, WG 70%, 35 gai/ha): 10%
- pest or weed control at 17.5 g/ha (Lolium multiflorum; 17.5 gai/ha): 20%
- pest or weed control at 35 g/ha (Lolium multiflorum; 35 gai/ha): 60%
- pest or weed control at 70 g/ha (Lolium multiflorum; 70 gai/ha): 65%
- inhibition at 17.5 g/ha (Poa annua; [3]): 60%
- inhibition at 35 g/ha (Poa annua; [4]): 70%
- pest or weed control at 17.5 g/ha (Poa annua; solo, WG 70%, 17.5 gai/ha): 60%
- percent weed control (herbicidal activity, 0-100 scale) at 250 g/ha (Ambrosia elatior [2]; metribuzin WG 70% solo 250 gai/ha): 60%
- pest or weed control at 31.25 g/ha (Ambrosia elatior [2]; solo, WG 70%, 31.25 gai/ha): 40%
- pest or weed control at 62.5 g/ha (Ambrosia elatior [2]; solo, WG 70%, 62.5 gai/ha): 40%
- pest or weed control at 125 g/ha (Ambrosia elatior [2]; solo, WG 70%, 125 gai/ha): 70%
- pest or weed control at 17.5 g/ha (Papaver rhoeas): 60%
- inhibition at 17.5 g/ha (Matricaria chamomilla; [3]): 0%
- inhibition at 35 g/ha (Matricaria chamomilla; [4]): 25%
- pest or weed control at 17.5 g/ha (Matricaria chamomilla; solo, WG 70%, 17.5 gai/ha): 0%
- pest or weed control at 35 g/ha (Matricaria chamomilla; solo, WG 70%, 35 gai/ha): 25%
- inhibition at 17.5 g/ha (Polygonum convolvulus; [3]): 0%
- inhibition at 35 g/ha (Polygonum convolvulus; [4]): 0%
- inhibition at 70 g/ha (Polygonum convolvulus; [5]): 60%
- inhibition at 140 g/ha (Polygonum convolvulus; metribuzin WG 70% solo 140 gai/ha): 70%
- inhibition at 17.5 g/ha (Brachiaria decumbens): 50%
- pest or weed control at 17.5 g/ha (Setaria viridis): 30%
- pest or weed control at 17.5 g/ha (Bromus sterilis; 17.5 gai/ha): 25%
- pest or weed control at 35 g/ha (Bromus sterilis; 35 gai/ha): 55%
